Experimental data: patent US20070093499A1, “Use of dasatinib for the treatment of bone metastasis” (Bristol-Myers Squibb Company, priority 2005, published 2007)
Ends that are not written are not given here.

Tests used:
TPTX rats [1] = experiment: Inhibition of PTH-induced hypercalcemia (serum calcium) in TPTX rats, oral BMS-354825; type: in vivo, rat
Procedure: Male Sprague-Dawley TPTX rats with basal serum calcium levels around 7-8 mg/dl were randomly assigned to the experimental groups. Alzet® mini-pumps containing a resorption stimulus (PTH: infusion rate of 0.3 μg/hr) were implanted subcutaneously. In brief, rats were anesthetized with isoflurane (5% of oxygen), the skin of the flank area was disinfected with a topical disinfectant. Following a small incision, a subcutaneous pouch was made with a sterile pair of blunt scissors, a mini-pump was inserted and the incision was closed with a wound clip. Upon drug administration, 500 μl of blood was sampled at the indicated time points by retro-orbital bleeding, the serum was collected and frozen at −80° C. Levels of serum calcium and drug were analyzed accordingly.
The serum levels of calcium of TPTX rats were quantitated by a photometric assay with the Roche Hitachi 917 (H9 17) automated chemistry analyzer (Indianapolis, Ind.). In this method, calcium reacts with o-cresolphthalein complexone in the presence of 8-hydroxyquinoline to form a purple chromophore. The color intensity of the purple complex is directly proportional to the calcium concentration and is measured photometrically on the analyzer. This method is capable of quantifying 0.2-18.2 mg/dL of serum calcium. For samples >18.2 mg/dL the samples must be diluted in saline and the value multiplied by the appropriate factor.
Malignancy related hypercalcemia has been strongly linked with bone resorption mediated by stimulation of native osteoclast formation and activity. […] In this model, the thyroid and parathyroid are surgically removed to induce hypocalcemia, then subsequent infusion with PTH stimulates the osteoclast-mediated calcemic response. […]. […] […]. […] […].
“Zoledronic acid versus placebo in the treatment of skeletal metastases in patients with lung cancer and other solid tumors: a phase III, double-blind, randomized trial—the Zoledronic Acid Lung Cancer and Other Solid Tumors Study Group.” J Clin Oncol 21(16): 3150-7). […] […]. […] […]. Due to the fact that osmotic pump works less efficiently after day 4, we intended not to include the data of calcium levels thereafter. […].

ovariectomized rats = conditions: Missbach et al. 1999; cited from earlier work
[2] = system: fetal rat long bone culture; conditions: Missbach et al. 1999; cited from earlier work
TPTX rats [3] = experiment: Serum calcium in thyro-parathyroidectomized rats, IP dosing; type: in vivo, rat
Procedure: Thyro-parathyroidectomy (TPTX) surgery was performed on male Sprague-Dawley rats (200 gram body weight) as described previously.4 Thyro-parathyroidectomized (TPTX) rats with serum calcium values of 5-8 mg/dl were used for the study (normal reference range is 10-12 mg/dl). On the day of the study (48 hours post-surgery), blood was collected from the tail vein under isoflurane anesthesia, and Alzet mini-pumps (delivering 1 μl/hr) containing 0.3 μg/ml of parathyroid hormone (PTH) were implanted subcutaneously. […] Blood was collected at 3, 6 & 24 hours after dosing and analyzed for serum calcium levels.

in vivo = conditions: Sprague-Dawley, rat, po, 30 mg/kg
Procedure: The serum levels of drug were analyzed by high performance liquid chromatography/mass spectrometry (HPLC/MS). […] After centrifugation to remove precipitated proteins, 5 μl of the supernatant was analyzed by HPLC/MS. The HPLC column was a Phenomenex Prodigy C18-ODS3 column (2 mm×50 mm, […]) maintained at 60° C. with a flow rate of 0.5 ml/min. […] The HPLC was interfaced to a Finnigan LCQ Advantage ion-trap mass spectrometer operated in the positive ion electrospray and full MS/MS mode. […] The limit of quantitation (LOQ) for the purposes of this assay was 0.004 μM. Quality control (QC) samples at two levels in the range of the standard curve were used to accept individual analytical sets. [drawing 3]
PK data analysis was performed by noncompartmental method using Kinetica (v4.0.2, InnaPhase Corporation, Philadelphia, Pa.). The maximum plasma concentration (Cmax) and the time reaching Cmax (Tmax) were determined by visually inspecting the profiles of plasma level of drug vs. time. […] The area under the plasma drug concentration curve (AUC) was estimated by the trapezoidal rule.

[4] = system: TRAP positive osteoclasts in mouse bone marrow cell culture; experiment: Osteoclast formation (TRAP staining) in mouse bone marrow cell culture; type: cell-based
Procedure: Bone marrow was harvested by flushing the femur and tibia bones of CDF-1 mice with PBS followed by washing twice with PBS and resuspending in DMEM with 10% FBS (1-2×10^6 cells/m, 10 ml). Cells were then seeded in 24-well plates (2×10^6 cells/well/ml) and were cultured for 6-9 days in DMEM media supplemented with the cytokines: 10 ng/ml recombinant mouse M-CSF-1 and 100 ng/ml recombinant mouse RANK ligand to induce osteoclast development. Culture medium was replaced every two days till day 5 and there was no medium replacing between day 6 and day 9. […] On days 5, 7, and 9, cell viability and number of TRAP positive cells were determined using the Acid Phosphatase Leukocyte staining kit. The bone marrow cells were washed with PBS and stained according to the protocol recommended by the vendor. TRAP positive cells and osteoclasts were counted using an inverted microscope.
Differentiation to osteoclasts then occurs in the presence of osteoclast differentiation factor or RANK ligand (Buckley and Fraser Buckley, K. A. and W. D. Fraser (2002). “Receptor activator for nuclear factor kappaB ligand and osteoprotegerin: regulators of bone physiology and immune responses/potential therapeutic agents and biochemical markers.” Ann Clin Biochem 39(Pt 6): 551-6.). To establish the cell culture model of osteoclasts, bone marrow cells were freshly harvested from the tibia and femur bones of mice and were seeded in 24-wells plates containing DMEM medium supplemented with 20 ng/ml M-CSF and 100 ng/ml RANK ligand, which are the conditions commonly used in murine bone marrow culturing conditions (Murray, L. J., T. J. Abrams, et al. (2003). “SU11248 inhibits tumor growth and CSF-1R-dependent osteolysis in an experimental breast cancer bone metastasis model.” Clin Exp Metastasis 20(8): 757-66.). The formation of osteoclasts was monitored by TRAP staining for 9 days. […] Starting from day 5, TRAP positive staining cells were observed, and the multi-nucleated TRAP positive staining osteoclasts (with ≧3 nuclei) were clearly detected on day 7 and became most abundant by day 9.
[…]. […] […]. […] […].

[5] = system: PTH-stimulated bone resorption in fetal rat long bones; experiment: In vitro bone resorption assay (45Ca release from fetal rat long bones); type: cell-based
Procedure: Fetal rat long bones were prepared and cultured as described previously. (Feyen J H M, Cardinaux F, Gamse R, Bruns C, Azria M, and Trechsel U. N-terminal truncation of salmon calcitonin leads to calcitonin antagonist. Structure activity relationship of N-terminally truncated salmon calcitonin fragments in vitro and in vivo. Biochemistry and Biophysiology Research Communication 1992; 187:8-13.) Briefly, pregnant Sprague Dawley rats were injected subcutaneously with 200 μCi ^45Ca on day 18 of gestation. The following day, radii and ulnae were dissected free from muscle and connective tissue. The cartilaginous ends of the bones were removed and the calcified diaphyses were cultured in 0.5 mL BGJ medium supplemented with 1 mg/mL bovine serum albumin (BSA, fraction V) in 24-well tissue culture plates in a CO2 incubator at 37° C. overnight to reduce free exchangeable calcium. Next, medium was replaced and the bone explants were maintained in culture for 5 days in the presence or absence of the compounds to be tested. On day 2, a 100 μL aliquot was taken from the medium and the medium was replaced with fresh medium with or without treatments. […] The amount of radioactive calcium was determined using a Beckman liquid scintillation counter. Bone resorption was expressed as the percentage ^45Ca released by day 5 of total amount of ^45Ca originally incorporated in bone explants.

osteoclasts = conditions: cell culture; Murray et al. 2003; cited from earlier work
bone resorption = conditions: Murray et al. 2003; cited from earlier work

In the case of “calcitonin: a drug currently being used to manage hypercalcemia clinically, used as a reference compound (CGNLSTCMLGTYTQDFNKFHTFPQTAIGVGAP; ends and bridges not checked; cysteine pairing not given here; UniProt P01258 85-116, looked up) [reference compound]”, the “inhibition of serum calcium levels” value (TPTX rats [1]; 5 IU/dose sc) is reported as “rapid inhibition of serum calcium levels, but the inhibition was reversed rapidly” and the “serum calcium levels vs control rats” value (TPTX rats [1]; day 3, 5 IU/dose sc) is reported as “no significant difference”.
With `O=P(O)(O)C(O)(Cn1ccnc1)P(=O)(O)O` [zometa, reference compound] the “onset of inhibition of serum calcium levels” value (TPTX rats [1]; 0.4 mg/kg/dose sc (QD×5), PTH infused 24 hr prior to treatment) was “did not produce any appreciable inhibition until 24 hr”.
In the case of `COc1cccc(-c2cn(-c3ccc(CCN4CCC(O)CC4)cc3)c3ncnc(N)c23)c1` [CGP77675], the bone resorption (ovariectomized rats) is listed as “inhibitory potency” and the “parathyroid hormone (PTH)-induced bone resorption” value [2] is listed as “inhibitory potency”.
With Salmon Calcitonin [reference compound] the “Serum Calcium” value (TPTX rats [3]; 5 IU ip, 0 Hour (before dosing)) was 6.68 ± 0.21 mg/dL, the “Serum Calcium” value (TPTX rats [3]; 5 IU ip, 3 Hour) was 5.06 ± 0.13 mg/dL and the “Serum Calcium” value (TPTX rats [3]; 5 IU ip, 6 Hour) was 5.14 ± 0.15 mg/dL. The “Serum Calcium” value (TPTX rats [3]; 5 IU ip, 24 Hour) was 10.62 ± 0.64 mg/dL.
With `Cc1nc(Nc2ncc(C(=O)Nc3c(C)cccc3Cl)s2)cc(N2CCN(CCO)CC2)n1` [BMS-354825, N-(2-chloro-6-methylphenyl)-2-((6-(4-(2-hydroxyethyl)-1-piperazinyl)-2-methyl-4-pyrimidinyl)amino)-1,3-thiazole-5-carboxamide] the “Serum Calcium” value (TPTX rats [3]; 3 mg/kg ip, 0 Hour (before dosing)) was 6.74 ± 0.29 mg/dL, the “Serum Calcium” value (TPTX rats [3]; 3 mg/kg ip, 3 Hour) was 5.68 ± 0.26 mg/dL and the “Serum Calcium” value (TPTX rats [3]; 3 mg/kg ip, 6 Hour) was 7.94 ± 1.19 mg/dL. For the same compound, the “Serum Calcium” value (TPTX rats [3]; 3 mg/kg ip, 24 Hour) was 11.88 ± 0.61 mg/dL, the “significance of serum calcium effect vs vehicle” value (TPTX rats [3]; 3 mg/kg ip, 3 hour time point) was “not significant” and the “Serum Calcium” value (TPTX rats [3]; 10 mg/kg ip, 0 Hour (before dosing)) was 6.68 ± 0.25 mg/dL. The “Serum Calcium” value (TPTX rats [3]; 10 mg/kg ip, 3 Hour) was 5.80 ± 0.19 mg/dL, the “Serum Calcium” value (TPTX rats [3]; 10 mg/kg ip, 6 Hour) was 5.36 ± 0.12 mg/dL and the “Serum Calcium” value (TPTX rats [3]; 10 mg/kg ip, 24 Hour) was 7.70 ± 0.78 mg/dL. The “serum calcium levels vs vehicle and calcitonin” value (TPTX rats [3]; 10 mg/kg ip, after 24 hours) was “significantly lower than both vehicle and calcitonin”, the “inhibition of hypercalcemia compared with zometa 0.4 mg/kg/dose sc” value (TPTX rats [1]; 30 mg/kg/dose po, once daily) was “more effective than zometa” and the “inhibition of hypercalcemia compared with zometa 0.4 mg/kg/dose sc” value (TPTX rats [1]; 15 and 5 mg/kg/dose po, multiple treatment schedule) was “comparable inhibitory effect”. For the same compound, the “time to inhibition of serum calcium levels” value (TPTX rats [1]; 30, 15, 5 mg/kg/dose po (QD×5), PTH infused 24 hr prior to treatment) was ≤ 3 h, the “inhibition of serum calcium levels” value (TPTX rats [1]; 30, 15 and 5 mpk po (QD×1), upon initiation of PTH infusion) was “dose dependent inhibition” and the “inhibition of serum levels of calcium” value (TPTX rats [1]; 30 mpk (QD×1) and 15 mpk (2QD×1), orally) was “rapidly inhibited”. For the same compound, the “serum calcium levels vs control rats” value (TPTX rats [1]; day 3 post drug administration, 30 mpk QD×1 / 15 mpk 2QD×1 po) was “significantly below those of the control rats”, the “time of maximum inhibition of serum calcium levels” value (TPTX rats [1]; post drug administration, 15 and 30 mg/kg/dose po) was 4 h and the AUC0-24 hr (in vivo) was 0.91 µM·h. For the same compound, the Cmax (in vivo) was 60 nM, the AUC(0-t) (in vivo; AUC0-24 hr) was 1.16 µM·h and the formation of osteoclasts ([4]; DMEM with M-CSF/RANK ligand, dosed on day 5 post seeding) was “inhibited dose dependently”. For the same compound, the IC50 ([4]; Mus musculus, Osteoclast, 120 h, read-out: IC50, drug concentration required to inhibit 50% of osteoclast formation) was 4.4 nM, the number of osteoclasts ([4]; both culturing conditions: MDA-MB-231 condition media and DMEM with CSF/RANK ligand) was “significantly reduced” and the “number of the TRAP positive staining osteoclasts” value ([4]; various concentrations dosed on day 5, cultured up to 9 days) was “significantly reduced”. For the same compound, the IC50 ([5]; Rattus norvegicus, PTH 10^-8 M, read-out: apparent IC50, PTH-stimulated release of 45Ca (bone resorption)) was 2 nM and the PTH-stimulated bone resorption ([5]; at 5 nM) was “completely blocks”.
In the case of `CCN(CC)CCNC(=O)c1c(C)[nH]c(/C=C2\C(=O)Nc3ccc(F)cc32)c1C` [Su-11248], the “formation and function of osteoclasts” value (osteoclasts) is given as “inhibitory potency” and the “bone resorption in vivo” value (bone resorption) is given as “inhibitory potency”.
